Columns and labels:
BY2 cells = assay: Single cell production by MTI in BY2 cells in glycerol medium; type: cell-based, tobacco; details: glycerol as total carbon source
Procedure: The effects of Microtubule inhibitors (MTI) on tobacco cell growth in suspension culture were examined. Day seven stationary phase cells (1 ml) were transferred to medium (50 ml) in 250 ml shake flasks (Bokros et al., 1993) containing different concentrations (25 to 1000 nM) of MTI and were grown in cultures for 7 days in dark at 25° C. Both the control and MTI-containing flasks contained a final concentration of 0.5-0.1% (v/v) DMSO. The growth of these chemicals was evaluated in EP12 medium for BY2 cells and NT1B medium for BTI-NT1 cells were the carbon source is substituted with 3% glycerol. The response of these cells was compared with the same medium composition but with 3% sucrose as the Carbon source.

JTNT1 single cells = assay: AFLP analysis of genomic instability in JTNT1 single cells produced in 1 uM diphenylpyrazole; type: cell-based, tobacco
Procedure: JTNT1 Tobacco single cell initiation and sample collection. JTNT1 Tobacco single cells were initiated in two different media, NT1B with 3% sucrose (NT1B-Suc) and NT1B with 3% glycerol (NT1B-Gly) in 3.5 day culture cycle. […] The flasks were closed with a foam stopper and cultured on a orbital shaker at 130 rpm in dark at 25-28° C. The cultures were sub cultured every 3.5 days up to a period of 14 days. Four samples (Suc/Gly grown cells and the control cultures in Suc/Gly media with 0.2% DMSO) of the cultures were harvested every 3.5 days by spinning the suspension at 3000 rpm for 5 minutes. The samples were immediately lyophilized to prevent any cell oxidation to minimize any deleterious effect on the samples introduced post harvest. Single cells were stained with Hoechst nuclear stain for an hour and observed under scopes for any nuclear anomaly up to two culture cycles.
DNA extraction. Genomic DNA from representative samples were harvested from 3.5, 7, 10.5, and 14 days. Suc and Gly cultures along with the controls (10 samples) were extracted using CTAB protocol (See Appendix-Example 12). DNA was quantified using PicoGreen® dye from Molecular Probes, Inc. (Eugene, Oreg.). Each well of a microtiter plate contained 90 μl of 200-fold picogreen combined with 10 μl of DNA sample at 40× dilution or Lambda DNA standards (0, 2.5, 5 and 10 ng/μl). Plates were shaken briefly using standard plate shaker, and fluorescence was read (excitation ˜480 nm, emission ˜520 nm) using Spectra Max GeminiXS fluorometer from Molecular Devices (Sunnyvale, Calif.). Each sample was quantified in triplicate, and an average of the three results was used for subsequent dilutions. The DNA sample concentrations were diluted to working concentration of 91 ng/μl with sterile water.
AFLP analysis. Amplified fragment length polymorphism (AFLP) assays were performed using a modification of the protocol of Vos et. al. (1995), as described in Bryan et. al. (2002). The 6-bp cutting restriction enzyme EcoRI was used in combination with the 4-bp cutting restriction enzyme MseI. EcoR1 fluorescently labeled and Mse1 non-labeled AFLP primers were ordered from Applied Biosystems (Foster City, Calif.). AFLP analysis was carried out using Applied Biosystems' AFLP Plant Mapping Protocol through the selective amplification reaction with one modification. The modification was that digestion/ligation reactions were incubated at 37° C. overnight. Selectively amplified products were diluted 2 fold in sterilized deionized water. 0.5 ul of the diluted product was combined with 5 ul of loading buffer (5 ul GeneScan 500 by LIZ size standard mixed with 500 ul ABI HiDi Formamide). Samples were analyzed on an AB3730XL DNA Analyzer with G5-RCT spectral matrix using standard conditions. Data was then imported into GeneMapper® version 4.0 (Applied Biosystems, 2005). Alleles were assigned a numeric value according to PCR fragment size.

CCOC(=O)COc1nn(-c2ccccc2)c(-c2ccccc2)c1Cl [DAS-PMTI-1]
concentration effective for the production of single cells (BY2 cells): 5 to 25 nM | Number of polymorphic bands, Total (JTNT1 single cells; all primer combinations, 14 d, Gly, 1 uM): 34 | subculture cycles without genomic instability problem (JTNT1 single cells; concentration range tested): at least 4 subculture cycles | Number of polymorphic bands (JTNT1 single cells; primer 1p AC/CAG, 3.5 d, Gly, 1 uM): 0 | Number of polymorphic bands (JTNT1 single cells; primer 1p AC/CAG, 3.5 d, Suc, 1 uM): 0 | Number of polymorphic bands (JTNT1 single cells; primer 1p AC/CAG, 7 d, Gly, 1 uM): 0 | Number of polymorphic bands (JTNT1 single cells; primer 1p AC/CAG, 7 d, Suc, 1 uM): 0 | Number of polymorphic bands (JTNT1 single cells; primer 1p AC/CAG, 10.5 d, Gly, 1 uM): 0 | Number of polymorphic bands (JTNT1 single cells; primer 1p AC/CAG, 10.5 d, Suc, 1 uM): 0 | Number of polymorphic bands (JTNT1 single cells; primer 1p AC/CAG, 14 d, Gly, 1 uM): 5 | Number of polymorphic bands (JTNT1 single cells; primer 1p AC/CAG, 14 d, Suc, 1 uM): 0 | Number of polymorphic bands (JTNT1 single cells; primer 2p AGC/CAG, 3.5 d, Gly, 1 uM): 0 | Number of polymorphic bands (JTNT1 single cells; primer 2p AGC/CAG, 3.5 d, Suc, 1 uM): 0 | Number of polymorphic bands (JTNT1 single cells; primer 2p AGC/CAG, 7 d, Gly, 1 uM): 0 | Number of polymorphic bands (JTNT1 single cells; primer 2p AGC/CAG, 7 d, Suc, 1 uM): 0 | Number of polymorphic bands (JTNT1 single cells; primer 2p AGC/CAG, 10.5 d, Gly, 1 uM): 0 | Number of polymorphic bands (JTNT1 single cells; primer 2p AGC/CAG, 10.5 d, Suc, 1 uM): 0 | Number of polymorphic bands (JTNT1 single cells; primer 2p AGC/CAG, 14 d, Gly, 1 uM): 10 | Number of polymorphic bands (JTNT1 single cells; primer 2p AGC/CAG, 14 d, Suc, 1 uM): 0 | Number of polymorphic bands (JTNT1 single cells; primer 3p AGC/CTG, 3.5 d, Gly, 1 uM): 0 | Number of polymorphic bands (JTNT1 single cells; primer 3p AGC/CTG, 3.5 d, Suc, 1 uM): 0 | Number of polymorphic bands (JTNT1 single cells; primer 3p AGC/CTG, 7 d, Gly, 1 uM): 0 | Number of polymorphic bands (JTNT1 single cells; primer 3p AGC/CTG, 7 d, Suc, 1 uM): 0 | Number of polymorphic bands (JTNT1 single cells; primer 3p AGC/CTG, 10.5 d, Gly, 1 uM): 0 | Number of polymorphic bands (JTNT1 single cells; primer 3p AGC/CTG, 10.5 d, Suc, 1 uM): 0 | Number of polymorphic bands (JTNT1 single cells; primer 3p AGC/CTG, 14 d, Gly, 1 uM): 0 | Number of polymorphic bands (JTNT1 single cells; primer 3p AGC/CTG, 14 d, Suc, 1 uM): 0 | Number of polymorphic bands (JTNT1 single cells; primer 4p ACT/CTT, 3.5 d, Gly, 1 uM): 0 | Number of polymorphic bands (JTNT1 single cells; primer 4p ACT/CTT, 3.5 d, Suc, 1 uM): 0 | Number of polymorphic bands (JTNT1 single cells; primer 4p ACT/CTT, 7 d, Gly, 1 uM): 0 | Number of polymorphic bands (JTNT1 single cells; primer 4p ACT/CTT, 7 d, Suc, 1 uM): 0 | Number of polymorphic bands (JTNT1 single cells; primer 4p ACT/CTT, 10.5 d, Gly, 1 uM): 0 | Number of polymorphic bands (JTNT1 single cells; primer 4p ACT/CTT, 10.5 d, Suc, 1 uM): 0 | Number of polymorphic bands (JTNT1 single cells; primer 4p ACT/CTT, 14 d, Gly, 1 uM): 5 | Number of polymorphic bands (JTNT1 single cells; primer 4p ACT/CTT, 14 d, Suc, 1 uM): 0 | Number of polymorphic bands (JTNT1 single cells; primer 5p ACT/CAG, 3.5 d, Gly, 1 uM): 0 | Number of polymorphic bands (JTNT1 single cells; primer 5p ACT/CAG, 3.5 d, Suc, 1 uM): 0 | Number of polymorphic bands (JTNT1 single cells; primer 5p ACT/CAG, 7 d, Gly, 1 uM): 0 | Number of polymorphic bands (JTNT1 single cells; primer 5p ACT/CAG, 7 d, Suc, 1 uM): 0 | Number of polymorphic bands (JTNT1 single cells; primer 5p ACT/CAG, 10.5 d, Gly, 1 uM): 0 | Number of polymorphic bands (JTNT1 single cells; primer 5p ACT/CAG, 10.5 d, Suc, 1 uM): 0 | Number of polymorphic bands (JTNT1 single cells; primer 5p ACT/CAG, 14 d, Gly, 1 uM): 3 | Number of polymorphic bands (JTNT1 single cells; primer 5p ACT/CAG, 14 d, Suc, 1 uM): 0 | Number of polymorphic bands (JTNT1 single cells; primer 7p ACC/CAG, 3.5 d, Gly, 1 uM): 0 | Number of polymorphic bands (JTNT1 single cells; primer 7p ACC/CAG, 3.5 d, Suc, 1 uM): 0 | Number of polymorphic bands (JTNT1 single cells; primer 7p ACC/CAG, 7 d, Gly, 1 uM): 0 | Number of polymorphic bands (JTNT1 single cells; primer 7p ACC/CAG, 7 d, Suc, 1 uM): 0 | Number of polymorphic bands (JTNT1 single cells; primer 7p ACC/CAG, 10.5 d, Gly, 1 uM): 0 | Number of polymorphic bands (JTNT1 single cells; primer 7p ACC/CAG, 10.5 d, Suc, 1 uM): 0 | Number of polymorphic bands (JTNT1 single cells; primer 7p ACC/CAG, 14 d, Gly, 1 uM): 4 | Number of polymorphic bands (JTNT1 single cells; primer 7p ACC/CAG, 14 d, Suc, 1 uM): 0 | Number of polymorphic bands (JTNT1 single cells; primer 8p ACC/CTG, 3.5 d, Gly, 1 uM): 0 | Number of polymorphic bands (JTNT1 single cells; primer 8p ACC/CTG, 3.5 d, Suc, 1 uM): 0 | Number of polymorphic bands (JTNT1 single cells; primer 8p ACC/CTG, 7 d, Gly, 1 uM): 0 | Number of polymorphic bands (JTNT1 single cells; primer 8p ACC/CTG, 7 d, Suc, 1 uM): 0 | Number of polymorphic bands (JTNT1 single cells; primer 8p ACC/CTG, 10.5 d, Gly, 1 uM): 0 | Number of polymorphic bands (JTNT1 single cells; primer 8p ACC/CTG, 10.5 d, Suc, 1 uM): 0 | Number of polymorphic bands (JTNT1 single cells; primer 8p ACC/CTG, 14 d, Gly, 1 uM): 0 | Number of polymorphic bands (JTNT1 single cells; primer 8p ACC/CTG, 14 d, Suc, 1 uM): 0 | Number of polymorphic bands (JTNT1 single cells; primer 9p ACA/CAG, 3.5 d, Gly, 1 uM): 0 | Number of polymorphic bands (JTNT1 single cells; primer 9p ACA/CAG, 3.5 d, Suc, 1 uM): 0 | Number of polymorphic bands (JTNT1 single cells; primer 9p ACA/CAG, 7 d, Gly, 1 uM): 0 | Number of polymorphic bands (JTNT1 single cells; primer 9p ACA/CAG, 7 d, Suc, 1 uM): 0 | Number of polymorphic bands (JTNT1 single cells; primer 9p ACA/CAG, 10.5 d, Gly, 1 uM): 0 | Number of polymorphic bands (JTNT1 single cells; primer 9p ACA/CAG, 10.5 d, Suc, 1 uM): 0 | Number of polymorphic bands (JTNT1 single cells; primer 9p ACA/CAG, 14 d, Gly, 1 uM): 7 | Number of polymorphic bands (JTNT1 single cells; primer 9p ACA/CAG, 14 d, Suc, 1 uM): 0
